Assay results: patent US20120070392A1, “COMPOSITION FOR INHIBITING ERYTHEMA CAUSED BY ULTRAVIOLET RADIATION CONTAINING A DIPEPTIDE AS ACTIVE INGREDIENT” (priority 2009, published 2012)

System: PGE2 production
Test: Inhibition of UVB-induced PGE2 production in cultured human keratinocytes (PGE2 assay kit, calibrated with MTT absorbance)
Assay type: cell-based
Settings: not given
Protocol: Human keratinocytes were seeded at a density of 1×10^5 cells/well to 6-well plates containing 2 mL of KGM(keratinocyte growth medium, Clonetics, San Diego, Calif., USA) per well and cultured overnight. Then, the medium was replaced with KBM(keratinocyte basal medium) supplemented with 0.1% BSA(bovine serum albumin) and the cells were cultured for an additional 24 hours. Subsequently, the cells were pre-treated for an additional 24 hours with 2 mL of the same medium containing 10 μg/ml of each of the dipeptides listed in Table 1. […] The pre-treated medium was transferred to new 24 well plates and 1 mL of DPBS(Dulbecco's phosphate buffered saline) was added to the cells in each well. During UV irradiation, the transferred medium was stored in a cell incubator. […] At this time, the control was covered with aluminum foil. After the removal of DPBS, the transferred medium was returned to each well. The cells were further cultured for 24 hours, after which 1 mL of the medium was transferred to microcentrifuge tubes. […] The supernatants were then removed and the formazan crystals were solubilized in 1 ml of DMSO(dimethylsulfoxide). One hundred μL of the solution was transferred to each well of 96-well plates and an optical density was determined at 540 nm using an ELISA(enzyme-linked immunosorbent assay) reader. […] The concentration of PGE2 was determined using a PGE2 Assay Kit(KGE004, R&D Systems, Inc., Minneapolis, Minn., USA) according to the manufacturer's instruction. […] After removal of the reaction, the wells were washed five times with 400 μL of wash buffer. To each well was added 200 μL of a substrate solution, followed by incubation for 20 30 min. The reaction was terminated with 50 μL of a stop solution per well before determining absorbance at 450 nm on an ELISA reader. The PGE2 concentration of each sample was calculated from the standard graph and calibrated with the absorbance obtained in the MTT assay to determine their inhibitory activity against PGE2 production.

| Compound | % Inhibition against PGE2 Production |
| --- | --- |
| tyrosine-threonine [YT] | 91.5% |
| proline-asparagine [PN] | 32.7% |
| tyrosine-isoleucine [YI] | 44.3% |
| tyrosine-phenylalanine [YF] | 12.7% |
| threonine-methionine [TM] | 67.9% |
| alanine-proline [AP] | 26.3% |
| tyrosine-leucine [YL] | 24.7% |
| histidine-tyrosine [HY] | 77.9% |
| phenylalanine-tyrosine [FY] | 88.0% |
| tyrosine-methionine [YM] | 89.6% |
| tyrosine-glutamic acid [YE] | 74.2% |
| serine-proline [SP] | 94.7% |
| proline-glutamine [PQ] | 78.1% |
| methionine-threonine [MT] | 71.2% |
| threonine-valine [TV] | 43.9% |
| tryptophan-proline [WP] | 68.3% |
| histidine-serine [HS] | 53.2% |

| Compound | % Inhibition against PGE2 Production |
| --- | --- |
| asparagine-valine [NV] | 80.4% |
| threonine-proline [TP] | 65.7% |
| glutamic acid-methionine [EM] | 58.4% |
| histidine-leucine [HL] | 36.3% |
| glutamic acid-histidine [EH] | 75.4% |
| aspartic acid-methionine [DM] | 63.1% |
| NCC(=O)O.N[C@@H](CCC(=O)O)C(=O)O [EG, glutamic acid-glycine] | 90.9% |
| serine-methionine [SM] | 75.1% |
| methionine-aspartic acid [MD] | 64.8% |
| tryptophan-methionine [WM] | 50.6% |
| arginine-tyrosine [RY] | 67.3% |
| methionine-tyrosine [MY] | 91.7% |
| proline-histidine [PH] | 74.7% |
| asparagine-tyrosine [NY] | 58.1% |
| valine-asparagine [VN] | 31.3% |
| cysteine-methionine [CM] | 69.7% |
| serine-valine [SV] | 31.2% |

Same assay, conditions: 10 μg/ml dipeptide, 24 h pre-treatment, human keratinocytes, UVB 100 mJ/cm^2, medium assayed 24 h after irradiation; 0% or lower expressed as zero; 10% or more regarded as effective

| Compound | % Inhibition against PGE2 Production |
| --- | --- |
| valine-praline [VP] | 50.5% |
| histidine-histidine [HH] | 79.8% |
| NCC(=O)O.N[C@@H](Cc1c[nH]c2ccccc12)C(=O)O [WG, tryptophan-glycine] | 91.3% |
| histidine-phenylalanine [HF] | 43.2% |
| histidine-alanine [HA] | 44.1% |
| phenylalanine-methionine [FM] | 67.5% |
| asparagine-alanine [NA] | 42.0% |

Same assay, conditions: 10 μg/ml dipeptide, 24 h pre-treatment, human keratinocytes, UVB 100 mJ/cm^2, medium assayed 24 h after irradiation; […]; 10% or more regarded as effective

| Compound | % Inhibition against PGE2 Production |
| --- | --- |
| asparagine-leucine [NL] | 72.6% |
| glutamic acid-arginine [ER] | 72.8% |
| phenylalanine-arginine [FR] | 92.9% |
| NC(=O)CC(N)C(=O)O (stereo not drawn) [NN, asparagine-asparagine] | 48.3% |
| isoleucine-threonine [IT] | 18.9% |
| glutamine-lysine [QK] | 25.9% |
| glutamine-phenylalanine [QF] | 19.0% |
| aspartic acid-serine [DS] | 84.0% |
| glutamic acid-glutamine [EQ] | 79.6% |
| glutamine-arginine [QR] | 33.6% |
| threonine-glutamine [TQ] | 51.2% |
| tryptophan-leucine [WL] | 90.2% |
| aspartic acid-valine [DV] | 30.7% |
| tryptophan-glutamine [WQ] | 88.7% |
| alanine-glutamine [AQ] | 69.0% |
| phenylalanine-lysine [FK] | 73.3% |
| glutamic acid-serine [ES] | 48.8% |
| tryptophan-aspartic acid [WD] | 85.9% |
| cysteine-tryptophan [CW] | 71.0% |
| isoleucine-glutamine [IQ] | 72.0% |
| aspartic acid-leucine [DL] | 75.8% |
| aspartic acid-cysteine [DC] | 77.6% |
| valine-glutamic acid [VE] | 24.8% |
| aspartic acid-lysine [DK] | 76.6% |
| leucine-threonine [LT] | 53.4% |
| serine-cysteine [SC] | 77.7% |

| Compound | % Inhibition against PGE2 Production |
| --- | --- |
| threonine-isoleucine [TI] | 36.3% |
| leucine-valine [LV] | 79.9% |
| valine-aspartic acid [VD] | 45.3% |
| arginine-asparagine [RN] | 10.7% |
| glutamic acid-aspartic acid [ED] | 85.1% |
| glutamine-aspartic acid [QD] | 66.0% |
| tryptophan-histidine [WH] | 96.1% |
| alanine-phenylalanine [AF] | 84.2% |
| glutamine-asparagine [QN] | 13.9% |
| alanine-cysteine [AC] | 70.8% |
| cysteine-serine [CS] | 53.1% |
| tryptophan-arginine [WR] | 83.7% |
| valine-arginine [VR] | 52.5% |
| arginine-glutamic acid [RE] | 58.8% |
| aspartic acid-alanine [DA] | 94.1% |
| lysine-threonine [KT] | 77.8% |
| serine-glutamine [SQ] | 58.8% |
| alanine-arginine | 95.7% |
| arginine-serine [RS] | 50.3% |
| aspartic acid-tryptophan [DW] | 67.3% |
| alanine-serine [AS] | 72.5% |
| arginine-leucine [RL] | 30.4% |
| lysine-valine [KV] | 71.6% |
| threonine-arginine [TR] | 53.0% |
| tryptophan-tryptophan [WW] | 34.8% |
| phenylalanine-isoleucine [FI] | 45.8% |
